From US10173971B2, “Picolinamides with fungicidal activity” (DOW AGROSCIENCES LLC, priority 2014, dated 2019)
Where two headings read alike, the source gives them in different places.

How the values were obtained:
Zymoseptoria tritici = test: Fungicidal activity: leaf blotch of wheat (SEPTTR), wheat seedlings, booth sprayer to run-off or track spray; type: in vivo; conditions: for pest or weed control at 121.5 g/ha: Low-Volume Cereal Activity at 121.5 g/H; for pest or weed control at 100 ppm: High-Volume Cereal Activity at 100 ppm
Puccinia triticina = test: Fungicidal activity: wheat brown rust (PUCCRT), wheat seedlings, booth sprayer to run-off or track spray; type: in vivo; conditions: for pest or weed control at 121.5 g/ha: Low-Volume Cereal Activity at 121.5 g/H; for pest or weed control at 100 ppm: High-Volume Cereal Activity at 100 ppm
[1] = 24 h, 1 Day Protectant, read-out: SEPTTR 1DP
[2] = 72 h, 3 Day Curative, read-out: SEPTTR 3DC
[3] = 24 h, 1 Day Protectant, read-out: PUCCRT 1DP
[4] = 72 h, 3 Day Curative, read-out: PUCCRT 3DC
[5] = 3DC (Day Curative), read-out: SEPTTR 3DC
[6] = 3DC (Day Curative), read-out: PUCCRT 3DC

| SMILES | pest or weed control at 121.5 g/ha (Zymoseptoria tritici; [1]) [%] | pest or weed control at 121.5 g/ha (Zymoseptoria tritici; [2]) [%] | pest or weed control at 121.5 g/ha (Puccinia triticina; [3]) [%] | pest or weed control at 121.5 g/ha (Puccinia triticina; [4]) [%] | pest or weed control at 100 ppm (Zymoseptoria tritici; [1]) [%] | pest or weed control at 100 ppm (Zymoseptoria tritici; [5]) [%] | pest or weed control at 100 ppm (Puccinia triticina; [3]) [%] | pest or weed control at 100 ppm (Puccinia triticina; [6]) [%] |
| --- | --- | --- | --- | --- | --- | --- | --- | --- |
| CC[C@H](CC1CC1)[C@@H](Cc1ccccc1)[C@H](C)OC(=O)[C@H](C)NC(=O)c1nccc(OC)c1OCOC(C)=O [compound 173] | 80 to 100 | 80 to 100 | 80 to 100 | 0 to 80 | – | – | – | – |
| CCCC[C@H](c1ccccc1)[C@H](C)OC(=O)[C@H](C)NC(=O)c1nccc(OC)c1OCOC(C)=O [compound 199] | 80 to 100 | 80 to 100 | 80 to 100 | 80 to 100 | – | – | – | – |
| COc1ccnc(C(=O)N[C@@H](C)C(=O)O[C@@H](C)[C@@H](COCc2ccccc2)Cc2ccc(F)cc2)c1O [compound 131] | – | – | – | – | 80 to 100 | 0 to 80 | 80 to 100 | 0 to 80 |
| COc1ccnc(C(=O)N[C@@H](C)C(=O)O[C@@H](C)[C@@H](COCc2ccc(F)cc2)Cc2ccc(F)cc2)c1OCOC(C)=O [compound 249] | 80 to 100 | 0 to 80 | 80 to 100 | 0 to 80 | – | – | – | – |
| CCCOC[C@@H](Cc1ccccc1)[C@H](C)OC(=O)[C@@H](C)NC(=O)c1nccc(OC)c1O [compound 97] | – | – | – | – | 0 to 80 | 0 to 80 | 0 to 80 | 0 to 80 |
| COc1ccnc(C(=O)N[C@@H](C)C(=O)O[C@@H](C)[C@H](Cc2ccccc2)C(C)(C)Oc2ccc(Cl)cc2Cl)c1OCOC(C)=O [compound 254] | 80 to 100 | 80 to 100 | 80 to 100 | 0 to 80 | – | – | – | – |
| COc1ccnc(C(=O)N[C@@H](C)C(=O)O[C@@H](C)[C@H](Cc2ccccc2)c2ccccc2)c1OCOC(C)=O [compound 195] | 80 to 100 | 80 to 100 | 80 to 100 | 80 to 100 | – | – | – | – |
| COc1ccnc(C(=O)N[C@H](C(=O)OC(C)C(Cc2ccccc2)Cc2ccccc2)C(C)C)c1OC(C)=O (stereo partly drawn) [compound 261] | 0 to 80 | 0 to 80 | 80 to 100 | 0 to 80 | – | – | – | – |
| COc1ccnc(C(=O)N[C@H](C(=O)OC(C)C(Cc2ccccc2)Cc2ccccc2)C(C)C)c1OCOC(C)=O (stereo partly drawn) [compound 266] | 0 to 80 | – | 80 to 100 | 0 to 80 | – | – | – | – |
| COc1ccnc(C(=O)N[C@@H](C)C(=O)O[C@@H](C)[C@H](Cc2ccc(F)cc2)C(C)(C)OC)c1OCOC(C)=O [compound 244] | 0 to 80 | 80 to 100 | 80 to 100 | 80 to 100 | – | – | – | – |
| CCOCC(=O)OCOc1c(OC)ccnc1C(=O)N[C@@H](C)C(=O)O[C@@H](C)[C@H](Cc1ccc(F)cc1)C(C)(C)OCc1ccccc1 [compound 235] | 80 to 100 | 0 to 80 | 80 to 100 | 0 to 80 | – | – | – | – |
| CC[C@H](NC(=O)c1nccc(OC)c1OC(C)=O)C(=O)OC(C)C(Cc1ccccc1)Cc1ccccc1 (stereo partly drawn) [compound 262] | 0 to 80 | – | 80 to 100 | 0 to 80 | – | – | – | – |
| CC[C@H](Cc1ccccc1)[C@@H](Cc1ccc(OC(F)(F)F)cc1)[C@H](C)OC(=O)[C@H](C)NC(=O)c1nccc(OC)c1OCOC(C)=O [compound 187] | 0 to 80 | 0 to 80 | 0 to 80 | 0 to 80 | – | – | – | – |
| CCCOC[C@@H](Cc1ccc(OC)c(Cc2ccccc2)c1)[C@H](C)OC(=O)[C@H](C)NC(=O)c1nccc(OC)c1OCOC(C)=O [compound 258] | 0 to 80 | 0 to 80 | 0 to 80 | 0 to 80 | – | – | – | – |
